For 53 compounds, EC50 results are on record in patent US10202404B2, “Polycyclic pyridone derivative having integrase inhibitory activity” (Shionogi & Co., Ltd., priority 2014, dated 2019).

By EC50 is commonly meant the concentration giving half of the maximal effect. Read a high EC50 as a less potent agent.

The assay has as its system HIV. The assay is described as follows: Anti-HIV activity (MT-4 cells, MTT). It counts as cell-based. Conditions: 50% HIV inhibition concentration, MT-4 cells infected with HIV, incubated 4 days, MTT readout. Here is the method: Previously, a series of two-fold dilution on test samples were carried out in a 96-well plate (50 μL/well). Two plates were made for measuring anti-HIV activity and measuring cytotoxicity. For each agent, measurement in duplicate was carried out. An MT-4 cell suspension of 2.5×10^5/mL was dispensed at 100 μL/well onto the 96-well plate containing the test samples. An HIV virus solution was dispensed at 50 μL/well onto the 96-well plate containing the test samples and the cell. To the plate for measuring cytotoxicity, a culture solution was dispensed at 50 μL/well. It was mixed by a plate mixer, and then incubated in a CO2 incubator for 4 days. […] Thirty microliters of a MTT (3-(4,5-dimethylthiazol-2-yl)-2,5-diphenyltetrazolium bromide) solution was dispensed to each well.
A reaction was allowed to occur in a CO2 incubator for an hour. From each well, 150 μL of the supernatant was removed such that cells are not sucked. One-hundred and fifty microliters of a cell lysis solution was added thereto, and then it was mixed well by a plate mixer until the whole cells are lysed. The mixed 96-well plates were measured by a microplate reader at two wavelengths, 560 nm/690 nm. Based on the following calculation formula, 50% HIV inhibition concentration (EC50) was calculated. EC50=10Z Z=(50%−Low %)/(High %−Low %)×{log(High conc.)−log(Low conc.)}+log(Low conc.) Based on the following calculation formula, 50% cytotoxic concentration (CC50) was calculated. CC50=10Z Z=(50%−Low %)/(High %−Low %)×{log(High conc.)−log(Low conc.)}+log(Low conc.) Based on the following calculation formula, selectivity index (ST) was calculated. SI=CC50/EC50 (Result)

Setting [1] is: Human immunodeficiency virus 1, MT4, 96 h.

Under setting [1], `C[C@@H]1CCO[C@H]2Cn3cc(-c4ncc(Cc5cccc(Cl)c5F)s4)c(=O)c(O)c3C(=O)N12` [Compound A-1] showed a 50% effective concentration (EC50) of 7.8 nM.
On the same count and under the same terms, the figure for `C[C@H]1CO[C@@H]2Cn3cc(-c4ncc(Cc5cccc(Cl)c5F)s4)c(=O)c(O)c3C(=O)N12` [Compound A-2] is 2.5 nM; for `C[C@@H]1CO[C@H]2Cn3cc(-c4ncc(Cc5cccc(Cl)c5F)s4)c(=O)c(O)c3C(=O)N12` [Compound A-3] it is 3.7 nM; for `C[C@@H]1CCN2C(=O)c3c(O)c(=O)c(-c4ncc(Cc5cccc(Cl)c5F)s4)cn3C[C@@H]2O1` [Compound A-5] it is 8 nM.
Take `C[C@H]1CO[C@@H]2Cn3cc(-c4ncc(Cc5ccc(F)cc5F)s4)c(=O)c(O)c3C(=O)N12` [Compound A-6]: the response under setting [1] was half-maximal at 1.9 nM (EC50).
Regarding `C[C@@H]1CO[C@H]2Cn3cc(-c4ncc(Cc5ccc(F)cc5F)s4)c(=O)c(O)c3C(=O)N12` [Compound A-7], under setting [1], a half-maximal effect (EC50) was put at 6.5 nM. Against the preceding compound, the EC50 is about 3.4-fold higher.
Under setting [1], `C[C@@H]1CO[C@H]2Cn3cc(-c4ncc(Cc5ccc(F)cc5F)s4)c(=O)c(O)c3C(=O)N2C1` [Compound A-8] showed a half-maximal effective concentration (EC50) of 3.5 nM.
The same measure, in the same setting: the result for `C[C@@H]1CO[C@H]2Cn3cc(-c4ncc(Cc5cccc(Cl)c5F)s4)c(=O)c(O)c3C(=O)N2C1` [Compound A-9] reads 7.1 nM; that for `C[C@H]1CCO[C@@H]2Cn3cc(-c4ncc(Cc5ccc(F)cc5F)s4)c(=O)c(O)c3C(=O)N12` [Compound A-10], 4.4 nM; that for `C[C@H]1CCO[C@@H]2Cn3cc(-c4ncc(Cc5cccc(Cl)c5F)s4)c(=O)c(O)c3C(=O)N12` [Compound A-11], 8.8 nM.
On the same count and under the same terms, the result for `C[C@@H]1CCO[C@H]2Cn3cc(-c4ncc(Cc5c(F)cc(F)cc5F)s4)c(=O)c(O)c3C(=O)N12` [Compound A-12] reads 4.9 nM; that for `C[C@@H]1CCO[C@@H]2Cn3cc(-c4ncc(Cc5ccc(F)cc5F)s4)c(=O)c(O)c3C(=O)N12` [Compound A-13], 6 nM.
Same read-out and setting: the figure for `C[C@H]1CO[C@@H]2Cn3cc(-c4ncc(Cc5c(F)cc(F)cc5F)s4)c(=O)c(O)c3C(=O)N12` [Compound A-14] is 1.2 nM; for `C[C@H]1CO[C@@H]2Cn3cc(-c4nnc(Cc5ccc(F)cc5F)s4)c(=O)c(O)c3C(=O)N12` [Compound A-15] it is 1.1 nM.
In turn, `C[C@@H]1CCN2C(=O)c3c(O)c(=O)c(-c4nnc(Cc5ccc(F)cc5F)s4)cn3C[C@@H]2O1` [Compound A-16] displayed a concentration giving a half-maximal response (EC50) under setting [1] of 2.1 nM.
Same read-out and setting: the figure for `C[C@@H]1CCO[C@H]2Cn3cc(-c4nnc(Cc5cccc(Cl)c5F)s4)c(=O)c(O)c3C(=O)N12` [Compound A-17] is 2.3 nM; for `C[C@H]1CO[C@@H]2Cn3cc(-c4nnc(Cc5cccc(Cl)c5F)s4)c(=O)c(O)c3C(=O)N12` [Compound A-18] it is 2.3 nM; for `C[C@@H]1CO[C@H]2Cn3cc(-c4nnc(Cc5ccc(F)cc5F)s4)c(=O)c(O)c3C(=O)N12` [Compound A-19] it is 3.1 nM.
The same measure, in the same setting: the figure for `C[C@@H]1CO[C@H]2Cn3cc(-c4nnc(Cc5cccc(Cl)c5F)s4)c(=O)c(O)c3C(=O)N12` [Compound A-20] is 3 nM; for `C[C@@H]1CO[C@H]2Cn3cc(-c4nnc(Cc5ccc(F)cc5F)s4)c(=O)c(O)c3C(=O)N2C1` [Compound A-21] it is 1 nM; for `C[C@@H]1CO[C@H]2Cn3cc(-c4nnc(Cc5cccc(Cl)c5F)s4)c(=O)c(O)c3C(=O)N2C1` [Compound A-22] it is 1.7 nM.
With `C[C@@H]1CCO[C@H]2Cn3cc(-c4nnc(Cc5c(F)cc(F)cc5F)s4)c(=O)c(O)c3C(=O)N12` [Compound A-23], the EC50 under setting [1] was 2.6 nM.
Same read-out and setting: the figure for `C[C@@H]1CCO[C@H]2Cn3cc(-c4nnc(Cc5cc(F)c(F)cc5F)s4)c(=O)c(O)c3C(=O)N12` [Compound A-24] is 4.2 nM; for `C[C@@H]1CCO[C@H]2Cn3cc(-c4nnc(Cc5c(F)ccc(Cl)c5F)s4)c(=O)c(O)c3C(=O)N12` [Compound A-25] it is 3.4 nM; for `C[C@@H]1CCO[C@H]2Cn3cc(-c4nnc(Cc5ccc(F)c(Cl)c5F)s4)c(=O)c(O)c3C(=O)N12` [Compound A-26] it is 3.8 nM.
`C[C@@H]1CCO[C@H]2Cn3cc(-c4nnc(Cc5c(Cl)ccc(Cl)c5F)s4)c(=O)c(O)c3C(=O)N12` [Compound A-27] showed an EC50 under setting [1] of 3.5 nM.
For `C[C@H]1CCO[C@@H]2Cn3cc(-c4nnc(Cc5cccc(Cl)c5F)s4)c(=O)c(O)c3C(=O)N12` [Compound A-28], the response under setting [1] was half-maximal at 3.3 nM (EC50).
On the same count and under the same terms, the figure for `C[C@@H]1CCO[C@H]2Cn3cc(-c4nnc(Cc5ccc(F)c(F)c5F)s4)c(=O)c(O)c3C(=O)N12` [Compound A-31] is 2.3 nM; for `COc1c(F)ccc(Cc2nnc(-c3cn4c(c(O)c3=O)C(=O)N3[C@H](C)CCO[C@H]3C4)s2)c1F` [Compound A-32] it is 12 nM; for `C[C@@H]1CCO[C@H]2Cn3cc(-c4nnc(Cc5ccc(F)c(Cl)c5)s4)c(=O)c(O)c3C(=O)N12` [Compound A-33] it is 2.5 nM.
On the same count and under the same terms, the result for `C[C@@H]1CCO[C@H]2Cn3cc(-c4nnc(Cc5cc(C(F)(F)F)cc(Cl)c5F)s4)c(=O)c(O)c3C(=O)N12` [Compound A-34] reads 13 nM.
With `C[C@@H]1CCO[C@H]2Cn3cc(-c4cnc(Cc5ccc(F)cc5F)s4)c(=O)c(O)c3C(=O)N12` [Compound A-40], a half-maximal effect (EC50) was put at 11 nM.
Compound `C[C@H]1CO[C@@H]2Cn3cc(-c4cnc(Cc5ccc(F)cc5F)s4)c(=O)c(O)c3C(=O)N12` [Compound A-42] showed an EC50 under setting [1] of 10 nM.
Still for that read-out and setting: the result for `C[C@@H]1CCO[C@H]2Cn3cc(-c4nnc(C(F)(F)c5cccc(Cl)c5F)s4)c(=O)c(O)c3C(=O)N12` [Compound A-43] reads 3.6 nM; that for `C[C@H]1CO[C@@H]2Cn3cc(-c4cn(Cc5ccc(F)cc5F)cn4)c(=O)c(O)c3C(=O)N12` [Compound A-44], 5.1 nM.
Still for that read-out and setting: the figure for `Cc1nc(-c2cn3c(c(O)c2=O)C(=O)N2[C@H](C)CCO[C@H]2C3)sc1Cc1ccc(F)cc1F` [Compound A-45] is 4.1 nM.
Same read-out and setting: the result for `Cc1nc(-c2cn3c(c(O)c2=O)C(=O)N2[C@@H](C)CO[C@@H]2C3)sc1Cc1cccc(Cl)c1F` [Compound A-46] reads 3.9 nM.
In the case of `Cc1nc(-c2cn3c(c(O)c2=O)C(=O)N2[C@@H](C)CO[C@@H]2C3)sc1Cc1ccc(F)cc1F` [Compound A-47], a half-maximal response under setting [1] (EC50) required 3.4 nM.
Same read-out and setting: the figure for `C[C@@H]1CCO[C@H]2Cn3cc(-c4nc(C(F)(F)F)c(Cc5ccc(F)cc5F)s4)c(=O)c(O)c3C(=O)N12` [Compound A-48] is 14 nM.
Compound `C[C@@H]1CCO[C@H]2Cn3cc(-c4cn(Cc5ccc(F)cc5F)cn4)c(=O)c(O)c3C(=O)N12` [Compound A-49] came in with a concentration giving a half-maximal response (EC50) of 10 nM.
On to `C[C@@H]1CCO[C@H]2Cn3cc(-c4cn(Cc5cccc(Cl)c5F)cn4)c(=O)c(O)c3C(=O)N12` [Compound A-50], for which the midpoint of the response under setting [1], the EC50, lay at 12 nM.
In turn, `C[C@@H]1CCO[C@H]2Cn3cc(-c4nnc(Oc5ccc(F)cc5F)s4)c(=O)c(O)c3C(=O)N12` [Compound A-51] showed an EC50 of 6.8 nM.
Still for that read-out and setting: the figure for `C[C@@H]1CCO[C@H]2Cn3cc(-c4nnc(Cc5ccc(F)cc5F)[nH]4)c(=O)c(O)c3C(=O)N12` [Compound A-52] is 18 nM.
With `O=C1c2c(O)c(=O)c(-c3nnc(Cc4cccc(Cl)c4F)s3)cn2C[C@@H]2N1C[C@H]1CCCN12` [Compound A-54], under setting [1], the EC50 came out at 1.6 nM.
Still for that read-out and setting: the figure for `O=C1c2c(O)c(=O)c(-c3nnc(Cc4ccc(F)cc4F)s3)cn2C[C@@H]2N1C[C@H]1CCCN12` [Compound A-55] is 1.7 nM; for `C[C@H]1CCN(C2CC2)[C@@H]2Cn3cc(-c4nnc(Cc5cccc(Cl)c5F)s4)c(=O)c(O)c3C(=O)N12` [Compound A-56] it is 4 nM; for `C[C@H]1N2C(=O)c3c(O)c(=O)c(-c4nnc(Cc5ccc(F)cc5F)s4)cn3C[C@@H]2OCC12CC2` [Compound A-57] it is 1.7 nM.
Compound `O=C1c2c(O)c(=O)c(-c3nnc(Cc4ccc(F)cc4F)s3)cn2CC2OCC3(COC3)CN12` (centres unmarked) [Compound A-58] registered an EC50 under setting [1] of 10 nM. Compared with the last compound, the EC50 is about 5.9-fold higher.
On the same count and under the same terms, the result for `Cc1nc(-c2cn3c(c(O)c2=O)C(=O)N2[C@H](C)CCO[C@H]2C3)cn1Cc1ccc(F)cc1F` [Compound A-59] reads 9.5 nM; that for `C[C@H]1CN(C2CC2)[C@@H]2Cn3cc(-c4nnc(Cc5ccc(F)cc5F)s4)c(=O)c(O)c3C(=O)N12` [Compound A-60], 2 nM.
Still for that read-out and setting: the result for `COCCN1CC[C@H](C)N2C(=O)c3c(O)c(=O)c(-c4nnc(Cc5ccc(F)cc5F)s4)cn3C[C@@H]12` [Compound A-61] reads 4.1 nM; that for `C[C@H]1[C@H]2CCCN2[C@@H]2Cn3cc(-c4nnc(Cc5ccc(F)cc5F)s4)c(=O)c(O)c3C(=O)N12` [Compound A-62], 1.6 nM.
The same measure, in the same setting: the result for `O=C1c2c(O)c(=O)c(-c3nnc(Cc4ccc(F)cc4F)s3)cn2C[C@@H]2O[C@H]3CCC[C@H]3N12` [Compound A-63] reads 2 nM.
